Reference: PubChem BioAssay (NCI)
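How tested: cells in 96-well plates exposed to compound for 48 hours at five concentrations. GI50: concentration for 50% inhibition of growth. At the TGI there is no net growth.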

What was measured:
Assay in all cases: NCI-60 cell line screen, 48 h
[1] = system: HCT-15 colon
[2] = system: SN12C renal
[3] = system: NCI-H23 lung
[4] = system: SF-295 CNS
[5] = system: SNB-19 CNS
[6] = system: K-562 leukemia
[7] = system: NCI-H460 lung
[8] = system: TK-10 renal
[9] = system: HCC-2998 colon
[10] = system: EKVX NSCLC
[11] = system: DU-145 prostate
[12] = system: CAKI-1 renal
[13] = system: SK-MEL-5 melanoma
[14] = system: PC-3 prostate
[15] = system: OVCAR-3 ovarian
[16] = system: ACHN renal
[17] = system: NCI-H522 lung
[18] = system: T-47D breast
[19] = system: SK-MEL-28 melanoma
[20] = system: HCT-116 colon
[21] = system: MOLT-4 leukemia
[22] = system: COLO 205 colon
[23] = system: OVCAR-4 ovarian
[24] = system: MALME-3M melanoma
[25] = system: A549 NSCLC
[26] = system: KM12 colon
[27] = system: LOX IMVI melanoma
[28] = system: UACC-62 melanoma
[29] = system: SR leukemia
[30] = system: M14 melanoma
[31] = system: SK-MEL-2 melanoma
[32] = system: MDA-MB-435
[33] = system: NCI/ADR-RES ovarian
[34] = system: UO-31 renal
[35] = system: MDA-MB-231 breast
[36] = system: SW-620 colon
[37] = system: HT29 colon
[38] = system: SF-268 CNS
[39] = system: IGROV1 ovarian
[40] = system: HL-60(TB) leukemia
[41] = system: OVCAR-8 ovarian
[42] = system: RPMI-8226 leukemia
[43] = system: OVCAR-5 ovarian
[44] = system: SK-OV-3 ovarian
[45] = system: CCRF-CEM leukemia
[46] = system: HOP-92 NSCLC
[47] = system: UACC-257 melanoma
[48] = system: MCF7 breast
[49] = system: HOP-62 NSCLC
[50] = system: RXF 393 renal
[51] = system: NCI-H226 lung
[52] = system: HS 578T breast
[53] = system: SF-539 CNS
[54] = system: A498 renal
[55] = system: U251 CNS
[56] = system: 786-0 renal
[57] = system: SNB-75 CNS

SMILES: O=C1CSC2=NC3=C(CSC/C3=C\c3ccc(Cl)cc3)C(c3ccc(Cl)cc3)N12 (stereo unspecified)
- TGI [1]: 80.2 µM
- TGI [2]: 39.2 µM
- TGI [3]: > 100 µM
- TGI [4]: 47.6 µM
- TGI [5]: > 100 µM
- TGI [6]: > 100 µM
- TGI [7]: > 100 µM
- TGI [8]: > 100 µM
- TGI [9]: 89.2 µM
- TGI [10]: > 100 µM
- TGI [11]: > 100 µM
- TGI [12]: > 100 µM
- TGI [13]: 29.3 µM
- TGI [14]: > 100 µM
- TGI [15]: 67 µM
- TGI [16]: > 100 µM
- TGI [17]: 36.3 µM
- TGI [18]: > 100 µM
- TGI [19]: 81.9 µM
- TGI [20]: 29 µM
- TGI [21]: 43.4 µM
- TGI [22]: > 100 µM
- TGI [23]: 67.1 µM
- TGI [24]: > 100 µM
- TGI [25]: > 100 µM
- TGI [26]: 79.1 µM
- TGI [27]: 28.7 µM
- TGI [28]: > 100 µM
- TGI [29]: 56.3 µM
- TGI [30]: > 100 µM
- TGI [31]: 52.3 µM
- TGI [32]: 66 µM
- TGI [33]: > 100 µM
- TGI [34]: 29.3 µM
- TGI [35]: > 100 µM
- TGI [36]: 62.3 µM
- TGI [37]: > 100 µM
- TGI [38]: > 100 µM
- TGI [39]: > 100 µM
- TGI [40]: > 100 µM
- TGI [41]: 43.3 µM
- TGI [42]: > 100 µM
- TGI [43]: > 100 µM
- TGI [44]: > 100 µM
- TGI [45]: > 100 µM
- TGI [46]: 39.9 µM
- TGI [47]: 85.9 µM
- TGI [48]: 87.2 µM

SMILES: N#C/C(=C1C=C/C(=N/O)C(Cl)=C/1)c1ccc(Cl)cc1
- GI50 [1]: 6.67 µM
- TGI [1]: 77.7 µM
- GI50 [2]: 2.99 µM
- TGI [2]: 8.02 µM
- GI50 [3]: 25.9 µM
- TGI [3]: > 100 µM
- GI50 [49]: 4.29 µM
- TGI [49]: 19.1 µM
- GI50 [4]: 4.08 µM
- TGI [4]: 14.4 µM
- GI50 [5]: 18.4 µM
- TGI [5]: > 100 µM
- GI50 [6]: 1.16 µM
- TGI [6]: 8.51 µM
- GI50 [7]: 3.8 µM
- TGI [7]: 15.2 µM
- GI50 [8]: 5.25 µM
- TGI [8]: 20.2 µM
- GI50 [9]: 19.1 µM
- TGI [9]: 38.4 µM
- GI50 [50]: 13.5 µM
- TGI [50]: 36.1 µM
- GI50 [10]: 10.4 µM
- TGI [10]: 59.2 µM
- GI50 [11]: 1.98 µM
- TGI [11]: 4.1 µM
- GI50 [12]: 3.63 µM
- TGI [12]: 14.1 µM
- GI50 [13]: 16.5 µM
- TGI [13]: 40.3 µM
- GI50 [14]: 4.99 µM
- TGI [14]: 71.1 µM
- GI50 [15]: 3.97 µM
- TGI [15]: 13.7 µM
- GI50 [16]: 4.47 µM
- TGI [16]: 18.4 µM
- GI50 [17]: 4.12 µM
- TGI [17]: 15.7 µM
- GI50 [51]: 7.59 µM
- TGI [51]: 27.3 µM
- GI50 [19]: 30.1 µM
- TGI [19]: > 100 µM
- GI50 [52]: 6.65 µM
- TGI [52]: 44.3 µM
- GI50 [53]: 3.16 µM
- TGI [53]: 11.9 µM
- GI50 [20]: 1.82 µM
- TGI [20]: 4.39 µM
- GI50 [54]: 3.07 µM
- TGI [54]: 20.4 µM
- GI50 [21]: 2.35 µM
- TGI [21]: 7.65 µM
- GI50 [22]: 12.2 µM
- TGI [22]: 31.1 µM
- GI50 [23]: 17 µM
- TGI [23]: 91.2 µM
- GI50 [24]: 12.2 µM
- TGI [24]: 29.3 µM
- GI50 [25]: 15.6 µM
- TGI [25]: 46.4 µM
- GI50 [26]: 0.721 µM
- TGI [26]: 10.1 µM
- GI50 [27]: 2.62 µM
- TGI [27]: 10.3 µM
- GI50 [28]: 4.01 µM
- TGI [28]: 18 µM
- GI50 [55]: 5.7 µM
- TGI [55]: 20 µM
- GI50 [29]: 1.36 µM
- TGI [29]: 4.05 µM
- GI50 [30]: 11.5 µM
- TGI [30]: 31.6 µM
- GI50 [31]: 7.8 µM
- TGI [31]: 24.8 µM
- GI50 [32]: 1.96 µM
- TGI [32]: 8.45 µM
- GI50 [33]: 4.7 µM
- TGI [33]: 26.1 µM
- GI50 [34]: 3.33 µM
- TGI [34]: 13 µM
- GI50 [35]: 7.24 µM
- TGI [35]: 23.4 µM
- GI50 [36]: 3.79 µM
- TGI [36]: 15.1 µM
- GI50 [37]: 5.46 µM
- TGI [37]: 19.8 µM
- GI50 [38]: 3.66 µM
- TGI [38]: 14.7 µM
- GI50 [39]: 2.66 µM
- TGI [39]: 7.89 µM
- GI50 [40]: 1.24 µM
- TGI [40]: 5 µM
- GI50 [41]: 12.3 µM
- TGI [41]: 51.9 µM
- GI50 [56]: 5.16 µM
- TGI [56]: 19.1 µM
- GI50 [42]: 1.61 µM
- TGI [42]: 11.8 µM
- GI50 [43]: 12.7 µM
- TGI [43]: 43.4 µM
- GI50 [44]: 15.7 µM
- TGI [44]: 41.6 µM
- GI50 [45]: 1.96 µM
- TGI [45]: 6.93 µM
- GI50 [46]: 7.92 µM
- TGI [46]: 51.1 µM
- GI50 [57]: 3.78 µM
- TGI [57]: 18.4 µM
- GI50 [47]: 21.2 µM
- TGI [47]: > 100 µM
- GI50 [48]: 2.42 µM
- TGI [48]: 8.89 µM

SMILES: CC(C)(C)C(=O)OCCNc1nc(-c2ccccc2)nc2ccccc12
- GI50 [1]: 12.3 µM
- TGI [1]: 24.8 µM
- GI50 [2]: 15.1 µM
- TGI [2]: 28.4 µM
- GI50 [3]: 12.1 µM
- TGI [3]: 24.5 µM
- GI50 [49]: 13 µM
- TGI [49]: 25.6 µM
- GI50 [4]: 10.7 µM
- TGI [4]: 22.5 µM
- GI50 [5]: 17.3 µM
- TGI [5]: 34.9 µM
- GI50 [6]: 2.11 µM
- TGI [6]: 10.9 µM
- GI50 [7]: 16.6 µM
- TGI [7]: 34.7 µM
- GI50 [8]: 11 µM
- TGI [8]: 23 µM
- GI50 [9]: 16.4 µM
- TGI [9]: 29.9 µM
- GI50 [50]: 15.4 µM
- TGI [50]: 32 µM
- GI50 [11]: 13.3 µM
- TGI [11]: 26.1 µM
- GI50 [12]: 11.6 µM
- TGI [12]: 23.8 µM
- GI50 [13]: 15.5 µM
- TGI [13]: 28.8 µM
- GI50 [14]: 15.6 µM
- TGI [14]: 32.6 µM
- GI50 [15]: 3.68 µM
- TGI [15]: 19.3 µM
- GI50 [16]: 13.6 µM
- TGI [16]: 26.5 µM
- GI50 [17]: 27.5 µM
- TGI [17]: > 100 µM
- GI50 [18]: 22.5 µM
- TGI [18]: 93.3 µM
- GI50 [51]: 20.2 µM
- TGI [51]: 67.1 µM
- GI50 [19]: 18.3 µM
- TGI [19]: 40.1 µM
- GI50 [52]: 11.5 µM
- TGI [52]: 25.6 µM
- GI50 [20]: 11.5 µM
- TGI [20]: 23.7 µM
- GI50 [54]: 15.1 µM
- TGI [54]: 29 µM
- GI50 [21]: 2.1 µM
- TGI [21]: 19 µM
- GI50 [22]: 16.2 µM
- TGI [22]: 37.9 µM
- GI50 [23]: 23.3 µM
- TGI [23]: 73.1 µM
- GI50 [25]: 16.8 µM
- TGI [25]: 39.5 µM
- GI50 [26]: 3.94 µM
- TGI [26]: 17.4 µM
- GI50 [27]: 10.3 µM
- TGI [27]: 22 µM
- GI50 [28]: 14.5 µM
- TGI [28]: 27.5 µM
- GI50 [55]: 11.5 µM
- TGI [55]: 23.6 µM
- GI50 [29]: 5.44 µM
- TGI [29]: 61.5 µM
- GI50 [30]: 7.57 µM
- TGI [30]: 20.5 µM
- GI50 [31]: 31.1 µM
- TGI [31]: > 100 µM
- GI50 [32]: 15.7 µM
- TGI [32]: 29.1 µM
- GI50 [33]: 16.6 µM
- TGI [33]: 51.6 µM
- GI50 [34]: 13.2 µM
- TGI [34]: 36.1 µM
- GI50 [38]: 16.8 µM
- TGI [38]: 35.7 µM
- GI50 [39]: 29.5 µM
- TGI [39]: > 100 µM
- GI50 [41]: 13.5 µM
- TGI [41]: 42.8 µM
- GI50 [56]: 3.4 µM
- TGI [56]: 19 µM
- GI50 [42]: 3.7 µM
- TGI [42]: 25.7 µM
- GI50 [43]: 14.6 µM
- TGI [43]: 27.8 µM
- GI50 [44]: 17.7 µM
- TGI [44]: 38.9 µM
- GI50 [45]: 12.7 µM
- TGI [45]: 35 µM
- GI50 [46]: 12.6 µM
- TGI [46]: 29 µM
- GI50 [48]: 17.3 µM
- TGI [48]: 43.2 µM
